Source: article PMC8095338 (Neuro-oncology Advances, 2021)
“And” between values parts separate entries of the source, which are not always exact repeats. Identical values can stand only once. Like-named read-outs stand apart in the source and are kept apart here.

Assays:
[1] = Plasma PK study in WT and NF1 minipigs (LC-MS/MS, noncompartmental); assay type: in vivo, minipig; conditions: for AUC: read-out: AUC0?∞
Experimental: Plasma isolation was performed as described in a previous study.[13] […] Tissues were harvested and immediately transferred to cryovials and stored at −80°C until analysis.
Standard curves and controls were generated using corresponding untreated tissue. Skin tissue was treated with collagenase, and all organ tissues were homogenized. Liquid extraction with ethyl acetate was then performed, followed by analysis. […] The chromatographic separation was performed as described.[13] Mass spectrometric detection was performed using multiple reaction monitoring in positive ionization mode. […] Ion source gases 1 and 2 were set at 50 and 50 psi, respectively; the curtain gas was at 20 psi and the collision gas at 4 psi. […] Data acquisition was performed with analyst 1.4.1 software (MDS-SCIEX).
The PK parameters included AUC–time curve from time 0 to ∞ (linear up, log down), Cmax, Tmax, and T1/2.

[2] = test system: ERK phosphorylation (p-ERK); assay: Tissue PD: p-ERK/ERK by capillary western (Wes); assay type: in vivo, minipig; conditions: for inhibition at 7.3 mg/kg: Sus scrofa, po; for p-ERK Inhibition: ND = Not detected
Experimental: WT (n = 8) and NF1 (n = 8) minipigs received a single human equivalent oral dose of 450 mg (7.3 mg/kg). Untreated WT (n = 4) and NF1 (n = 4) minipigs were also enrolled as controls. All animals were euthanized 2 h after drug administration. Tissue samples were collected from each animal at the same approximate locations and divided for analysis.
PD analysis in blood was performed as described in a previous study, with some modifications.[13] […] Samples were stimulated with phorbol 12-myristate 13-acetate (PMA) (200 nM) or phosphate-buffered saline for 10 min at 37°C within 1 h of being drawn. Red blood cells were removed using standard ammonium-chloride-potassium (ACK) lysis. Peripheral blood mononuclear cells (PBMCs) were snap-frozen as dry pellets and stored at −80°C until analysis. Protein lysates from PBMCs were prepared as described in a previous study.[13] For tissues, protein lysates were prepared by transferring ~[…] of snap frozen tissue to a 1.7-mL microfuge tube containing radioimmunoprecipitation lysis buffer with protease and phosphatase inhibitors. The samples were then homogenized using a rotor-stator homogenizer for 2–4 cycles of 20 s and centrifuged for 10 min at 4°C. Concentrations were measured using the Pierce BCA Protein assay kit (Thermo #23227), according to the manufacturer’s instructions. A capillary western blot assay was performed on a Wes system (ProteinSimple 004–600) according to the manufacturer’s instructions using a 12–230 kDa Separation Module (ProteinSimple SM-W004) and Anti-Rabbit Detection Module (ProteinSimple DM-001). Lysates were loaded at 1 mg/mL and instrument default settings were used. Primary antibodies against Phospho-p44/42 ERK1/2 (p-ERK) (Cell Signaling Technologies #4370S) and p44/42 ERK1/2 (ERK) (Cell Signaling Technologies #4695S) were used at 1:100 dilution. Peaks of the appropriate molecular weight (42/44 kilodaltons) were detected in the resulting electropherograms and chemiluminescent signal was quantified by calculating the area under the peaks. The relative intensity of p-ERK to total ERK was then calculated as a ratio (p-ERK/ERK). To discriminate low p-ERK signals from background, the peak signal-to-noise (S/N) ratio given by the software was ≥10, and the peak height/baseline ratio was ≥3.[27]

[3] = test system: p-ERK; assay: Immunohistochemistry for p-ERK in minipig tissues; assay type: in vivo
Experimental: Formalin-fixed paraffin-embedded minipig tissue including cerebral cortex, cross sections of optic nerve and sciatic nerve, and skin were sectioned. Immunohistochemical staining for phosphor-p44/p42 MAPK (ERK1/2) (Thr202/Tyr204) (Cell Signaling Technology Catalog #4370, Rabbit mAb, 1:100 dilution) was performed using 5 μm sections on a Thermo Fisher Scientific Autostainer 360 (Thermo Fisher Scientific). […] In the skin, epidermis was scored as no (0) or low (1) (<20 epidermal cells per 400× magnification) or high (2) (>20 epidermal cells per 400× magnification) immunoreactivity.

[4] = cited from earlier work
[5] = female, minipig, po, 7.3 mg/kg, individual NF1 F minipigs, single oral 7.3 mg/kg
[6] = female, minipig, po, 7.3 mg/kg, individual WT F minipigs, single oral 7.3 mg/kg
[7] = individual NF1 F minipigs, single oral 7.3 mg/kg, 7.3 mg/kg
[8] = individual NF1 M minipigs, single oral 7.3 mg/kg, 7.3 mg/kg
[9] = individual WT F minipigs, single oral 7.3 mg/kg, 7.3 mg/kg
[10] = individual WT M minipigs, single oral 7.3 mg/kg, 7.3 mg/kg
[11] = minipig, po, 7.3 mg/kg, all 16 minipigs (WT and NF1), median (range), single oral 7.3 mg/kg
[12] = minipig, po, 7.4 mg/kg, NF1 minipigs, 7.4 mg/kg single oral dose, median (range)
[13] = minipig, po, 7.4 mg/kg, WT minipigs, 7.4 mg/kg single oral dose, median (range)
[14] = pediatric patients, 25 mg/m^2, plasma, median (range), ref 6
[15] = pediatric patients, 25 mg/m^2, plasma, median (range), ref 7

Compound: Cn1cnc2c(F)c(Nc3ccc(Br)cc3Cl)c(C(=O)NOCCO)cc21 [selumetinib]
- Clast ([1]; all 16 minipigs (WT and NF1), median (range), single oral 7.3 mg/kg): 22.7 ng/mL
- k el ([1]; female, minipig, individual WT F minipigs, single oral 7.3 mg/kg): 2.78e-05 s⁻¹
- half-life [1, 5]: 7.5 h
- AUC [1, 5]: 3560 ng·h/mL
- Cmax ([1]; female, minipig, po, 7.3 mg/kg, individual NF1 F minipigs, single oral 7.3 mg/kg, read-out: Cmax): 812 ng/mL
- half-life [1, 6]: 7.1 h
- AUC [1, 6]: 3680 ng·h/mL
- Cmax ([1]; female, minipig, po, 7.3 mg/kg, individual WT F minipigs, single oral 7.3 mg/kg, read-out: Cmax): 636 ng/mL
- Kel ([1]; individual NF1 F minipigs, single oral 7.3 mg/kg): 0.1 h⁻¹
- AUC0?∞ [1, 7]: 5896 ng·h/mL and 5255 ng·h/mL and 4287 ng·h/mL
- Cmax [1, 7]: 678 ng/mL and 633 ng/mL and 571 ng/mL
- T1/2 [1, 7]: 7.6 h and 8.0 h and 8.2 h
- Tmax [1, 7]: 2.0 h and 0.5 h
- AUC0?∞ [1, 8]: 4116 ng·h/mL and 6092 ng·h/mL and 4344 ng·h/mL
- Cmax [1, 8]: 1480 ng/mL and 294 ng/mL and 766 ng/mL and 547 ng/mL
- T1/2 [1, 8]: 7.3 h and 14.7 h and 10.6 h and 6.1 h
- Tmax [1, 8]: 2.0 h
- AUC0?∞ [1, 9]: 5722 ng·h/mL and 5468 ng·h/mL and 5843 ng·h/mL
- Cmax [1, 9]: 573 ng/mL and 1040 ng/mL and 1020 ng/mL
- T1/2 [1, 9]: 10.1 h and 6.7 h and 7.8 h
- Tmax [1, 9]: 2.0 h and 0.5 h
- Kel ([1]; individual WT M minipigs, single oral 7.3 mg/kg): 0.1 h⁻¹
- AUC0?∞ [1, 10]: 3558 ng·h/mL and 9926 ng·h/mL and 5995 ng·h/mL and 5040 ng·h/mL
- Cmax [1, 10]: 266 ng/mL and 621 ng/mL and 861 ng/mL and 1270 ng/mL
- T1/2 [1, 10]: 6.7 h and 10.6 h and 11.8 h
- Tmax [1, 10]: 5 h and 0.5 h and 2.1 h
- k el ([1]; male, minipig, individual NF1 M minipigs, single oral 7.3 mg/kg): 2.78e-05 s⁻¹
- AUC ([1]; male, minipig, po, 7.3 mg/kg, individual NF1 M minipigs, single oral 7.3 mg/kg): 7930 ng·h/mL
- Tmax ([1]; male, minipig, po, 7.3 mg/kg, individual NF1 M minipigs, single oral 7.3 mg/kg, read-out: Tmax): 1.1 h
- half-life ([1]; male, minipig, po, 7.3 mg/kg, individual WT M minipigs, single oral 7.3 mg/kg): 12.3 h
- k el ([1]; minipig, all 16 minipigs (WT and NF1), median (range), single oral 7.3 mg/kg): 2.78e-05 s⁻¹
- AUC(0-inf) [1, 11]: 5360 ng·h/mL
- half-life [1, 11]: 7.9 h
- Cmax ([1]; minipig, po, 7.3 mg/kg, all 16 minipigs (WT and NF1), median (range), single oral 7.3 mg/kg, read-out: Cmax): 657 ng/mL
- Tmax ([1]; minipig, po, 7.3 mg/kg, all 16 minipigs (WT and NF1), median (range), single oral 7.3 mg/kg, read-out: Tmax): ~1 h
- AUC(0-inf) [1, 12]: 4800 ng·h/mL
- half-life [1, 12]: 7.8 h
- Cmax ([1]; minipig, po, 7.4 mg/kg, NF1 minipigs, 7.4 mg/kg single oral dose, median (range), read-out: Cmax): 656 ng/mL
- Tmax ([1]; minipig, po, 7.4 mg/kg, NF1 minipigs, 7.4 mg/kg single oral dose, median (range), read-out: Tmax): 1.1 h
- AUC(0-inf) [1, 13]: 5600 ng·h/mL
- half-life [1, 13]: 9 h
- Cmax ([1]; minipig, po, 7.4 mg/kg, WT minipigs, 7.4 mg/kg single oral dose, median (range), read-out: Cmax): 749 ng/mL
- inhibition at 7.3 mg/kg ([2]; 2 h, NF1 minipigs, cerebral cortex, 2 h after single oral 7.3 mg/kg, vs untreated controls, change not significant, read-out: p-ERK Inhibition): 71%
- inhibition at 7.3 mg/kg ([2]; 2 h, NF1 minipigs, optic nerve, 2 h after single oral 7.3 mg/kg, vs untreated controls, read-out: p-ERK Inhibition): 60%
- inhibition at 7.3 mg/kg ([2]; 2 h, NF1 minipigs, sciatic nerve, 2 h after single oral 7.3 mg/kg, vs untreated controls, read-out: p-ERK Inhibition): 60%
- inhibition at 7.3 mg/kg ([2]; 2 h, WT minipigs, sciatic nerve, 2 h after single oral 7.3 mg/kg, vs untreated controls, read-out: p-ERK Inhibition): 67%
- inhibition at 7.3 mg/kg ([2]; 2 h, all minipigs (WT and NF1), 2 h after single oral 7.3 mg/kg, read-out: mean inhibition of p-ERK in sciatic nerve): 64%
- inhibition at 7.3 mg/kg ([2]; 2 h, all minipigs (WT and NF1), 2 h after single oral 7.3 mg/kg, read-out: mean inhibition of p-ERK in skin): 95%
- p-ERK Inhibition ([2]; WT minipigs, cerebral cortex (subcortical white matter), 2 h after single oral 7.3 mg/kg, vs untreated controls): not observed
- p-ERK Inhibition ([2]; WT minipigs, optic nerve, 2 h after single oral 7.3 mg/kg, vs untreated controls): not observed
- mean inhibition of p-ERK in skin ([2]; all minipigs (WT and NF1), 2 h after single oral 7.3 mg/kg, 7.3 mg/kg): 94%
- p-ERK level in skin after selumetinib ([2]; all minipigs, single oral 7.3 mg/kg, 2 h, compared to untreated minipigs): nearly undetectable levels
- p-ERK by IHC in glial cells ([3]; NF1 minipig tissues, treated vs untreated): reduction in ERK phosphorylation
- treated NF1 animals without reduction in ERK phosphorylation by IHC ([3]; cerebral white matter tracts, NF1 minipigs): 4 of 8
- AUC0→∞ ([4]; human, in vivo, 75 mg): 4510 (19.2) hour × ng/mL
- AUC0-∞ (systemic exposure) ([4]; human, in vivo): 4510 to 6335 ng·h/mL
- AUC0-∞ (systemic exposure) ([4]; pediatric NF1 patients): 2520 to 3855 ng·h/mL
- median maximum concentration (Cmax) in plasma ([4]; pediatric dose 25 mg/m^2): 886 ng/mL
- AUC0→∞ [4, 14]: 2520 (2341–3280) hour × ng/mL
- Cmax [4, 14]: 886 (790–1200) ng/mL
- T1/2 [4, 14]: 6.5 (4.7–15.8) hours
- AUC0→∞ [4, 15]: 3855 (1780–7250) hour × ng/mL
- Cmax [4, 15]: 1400 (306–3570) ng/mL
- Tmax [4, 15]: 1.4 (1.0–4.0) hours
